Patent US10287267B2, “Isoquinolin-3-yl carboxamides and preparation and use thereof” (Samumed, LLC, priority 2016, dated 2019)
Like-named read-outs stand apart in the source and are kept apart here.

Legend:
[1] = test system: Wnt pathway (Sp5-Luc reporter, TCF/LEF binding sites) in SW480 colon carcinoma cells; experiment: Screening assay for Wnt activity: Sp5-Luc reporter gene assay; format: cell-based, human; settings: Homo sapiens; for EC50: Sp5-Luc reporter, SW480 cells, 36 to 48 hours; for inhibition at 10 µM: SW480, read-out: percent inhibition at 10 μM;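 on all read-outs here: firefly luciferase luminescence read in stably transduced SW480 cells carrying the Sp5 promoter reporter with eight TCF/LEF sites, compounds given in 0.1% DMSO final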
Protocol: The screening assay for Wnt activity is described as follows.
Following incubation, 15 μl of BriteLite Plus luminescence reagent (Perkin Elmer) was added to each well of the 384-well assay plates. The plates were placed on an orbital shaker for 2 min and then luminescence was quantified using the Envision (Perkin Elmer) plate reader.

[2] = molecular target: recombinant DYRK1A kinase (Homo sapiens (Human), UniProt Q13627); experiment: DYRK1A kinase assay (Ser/Thr 18 peptide Z-lyte FRET); format: biochemical; settings: 30 μM ATP, 1 h room temperature;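 further: Read-out is the coumarin to fluorescein emission ratio, referenced to unphosphorylated (0%) and phosphorylated (100%) Ser/Thr 18 peptide controls, values from dose-response curves by non-linear regression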
recombinant GSK3β kinase = recombinant GSK3β kinase (Homo sapiens (Human), UniProt P49841); experiment: GSK3β kinase assay (Ser/Thr 09 peptide Z-lyte FRET); format: biochemical; settings: 46 μM ATP, 1 h room temperature;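 further: kinase activity read as coumarin to fluorescein emission ratio, 11-point threefold dilutions from 10 µM to 0.0003 µM in duplicate, unphosphorylated and phosphorylated peptide as 0% and 100% controls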
Chain of recombinant GSK3β kinase (P49841 whole entry): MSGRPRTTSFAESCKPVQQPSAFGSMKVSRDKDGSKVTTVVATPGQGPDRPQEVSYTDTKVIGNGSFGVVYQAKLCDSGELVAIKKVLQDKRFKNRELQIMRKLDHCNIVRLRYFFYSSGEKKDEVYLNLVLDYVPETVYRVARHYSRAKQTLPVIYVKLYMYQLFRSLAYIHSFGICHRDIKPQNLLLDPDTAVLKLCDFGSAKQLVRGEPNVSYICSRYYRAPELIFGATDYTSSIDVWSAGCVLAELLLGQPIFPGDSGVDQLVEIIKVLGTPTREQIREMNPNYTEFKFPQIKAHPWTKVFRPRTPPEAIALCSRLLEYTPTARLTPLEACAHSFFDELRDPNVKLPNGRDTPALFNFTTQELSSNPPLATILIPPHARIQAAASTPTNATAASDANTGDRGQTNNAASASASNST

[3] = test system: Tau phosphorylation at Ser396 (pSer396); experiment: Tau phosphorylation assay (pSer396 ELISA / western blot) in SH-SY5Y cells; format: cell-based, human; settings: SH-SY5Y cells;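 further: EC50 for reduction of Tau pSer396 in lysed cells, measured by colorimetric ELISA or chemiluminescent western blot, both using the same pSer396 antibody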
[4] = test system: SW480 colon carcinoma cells; experiment: Cell viability assay (CellTiter-Glo); format: cell-based, human; settings: Homo sapiens; for EC50: 96 h, SW480 cells, CellTiter-Glo, four days incubation; for inhibition at 10 µM: SW480, read-out: percent inhibition at 10 μM
IL-6 = IL-6 inhibition in LPS-stimulated human peripheral blood mononuclear cells (HTRF); format: cell-based; settings: Homo sapiens, PBMC; for EC50: Table 9, huPBMCs, LPS 50 ng/mL, 22 hours, dose-response starting from 10 μM;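 on all read-outs here: IL-6 detected by HTRF with an XL665- and Cryptate-labelled anti-IL-6 antibody pair, samples run in duplicate, EC50 obtained from a four-parameter Levenberg-Marquardt curve fit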
Protocol: After 22 hour incubation, a mixture of anti-IL6 XL665 and anti-IL-6 Cryptate diluted in reconstitution buffer (Catalog #62IL6PEC, Cisbio Inc., Bedford, Mass.) was added to each well. […] All samples were processed in duplicate. […] EC50 was determined using software generated by Dotmatics Limited (Windhill Bishops Stortford Herts, UK) using the Levenberg-Marquardt 4 parameter fitting procedure with finite different gradients.

[5] = test system: α-smooth muscle actin (αSMA) positive LL29 cells; experiment: Inhibition of fibrotic process: αSMA in TGF-β1 treated primary human fibroblasts from IPF patients; format: cell-based; settings: Homo sapiens, Fibroblast, 96 h; Table 8; LL29 fibroblasts from IPF patients, TGF-β1 20 ng/mL, 4 days; dose-response 10 μM to 0.94 nM;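 further: controls were TGF-β1 stimulated wells with DMSO vehicle (positive) and cells given DMSO alone (negative), cultured in F12 medium with 1% fetal bovine serum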
[6] = Homo sapiens, overnight (16-18 h) exposure, read-out: pSer396 Tau EC50

EC50 [3, 6] [nM]	Structure (SMILES)	EC50 [1] [nM]	EC50 [2] [nM]	EC50 (recombinant GSK3β kinase) [nM]	EC50 [4] [nM]	EC50 (IL-6) [nM]	inhibition at 10 µM [1] [%]	inhibition at 10 µM [4] [%]	EC50 [5] [nM]	inhibition at 10 µM (IL-6; read-out: percent value in parentheses beside EC50 >10 μM) [%]	EC50 ([3]; control DYRK1A inhibitors, read-out: EC50 in the Tau assay) [nM]
–	Cn1cc(-c2ccc3cnc(NC(=O)C45CC(CO)(C4)C5)cc3c2)cn1 [Compound 1083, 3-(Hydroxymethyl)-N-(6-(1-methyl-1H-pyrazol-4-yl)isoquinolin-3-yl) bicyclo[1.1.1]pentane-1-carboxamide]	8210	4.2	914	901	8730	–	–	–	–	–
–	Cn1cc(-c2ccc3cnc(NC(=O)[C@H]4CC[C@H](C(=O)O)CC4)cc3c2)cn1 [Compound 1032, trans-4-((6-(1-Methyl-1H-pyrazol-4-yl)isoquinolin-3-yl)carbamoyl) cyclohexane-1-carboxylic acid]	> 10000	1.2	72	> 10000	3320	27.4	34.7	–	–	–
–	CC#CC(=O)Nc1cc2cc(-c3cnn(C)c3)ccc2cn1 [Compound 1026, N-(6-(1-Methyl-1H-pyrazol-4-yl)isoquinolin-3-yl)but-2-ynamide]	513	5	508	554	9520	–	–	2260	–	–
–	CN1CCC(n2cc(-c3ccc4cnc(NC(=O)C5CCCCC5)cc4c3)cn2)CC1 [Compound 969, N-(6-(1-(1-Methylpiperidin-4-yl)-1H-pyrazol-4-yl)isoquinolin-3-yl) cyclohexanecarboxamide]	3930	50	7610	2880	9120	–	–	935	–	–
–	O=C(CN1CCCC1)Nc1cc2cc(-c3cn[nH]c3C(F)(F)F)ccc2cn1 [Compound 287, 2-(Pyrrolidin-1-yl)-N-(6-(5-(trifluoromethyl)-1H-pyrazol-4-yl)isoquinolin-3-yl)acetamide]	7330	5140	9840	> 10000	9580	–	47.8	2350	–	–
–	Cc1ncc(-c2ccc3cnc(NC(=O)C4CCCCC4)cc3c2)n1C [Compound 120, N-(6-(1,2-Dimethyl-1H-imidazol-5-yl)isoquinolin-3-yl) cyclohexanecarboxamide]	2200	4.8	138	2490	2290	–	–	2130	–	–
–	CC(C)CN1CCC(F)(C(=O)Nc2cc3cc(-n4nccn4)ccc3cn2)CC1 [Compound 1073, N-(6-(2H-1,2,3-triazol-2-yl)isoquinolin-3-yl)-4-fluoro-1-isobutylpiperidine-4-carboxamide]	> 10000	1520	> 10000	> 10000	> 10000	5.9	8.5	> 10000	3.3	–
–	COC(=O)[C@H]1CC[C@H](C(=O)Nc2cc3cc(-c4cnn(C)c4)ccc3cn2)CC1 [Compound 1084, Methyl trans-4-((6-(1-methyl-1H-pyrazol-4-yl)isoquinolin-3-yl)carbamoyl) cyclohexane-1-carboxylate]	3410	1.7	40	3670	752	–	–	–	–	–
147	[2H]C([2H])(C(=O)Nc1cc2cc(-c3nnc(C)s3)ccc2cn1)N1CCOCC1 [Compound 1051, N-(6-(5-Methyl-1,3,4-thiadiazol-2-yl)isoquinolin-3-yl)-2-morpholinoacetamide-2,2-d2]	480	14.6	9	> 10000	–	–	22.5	–	–	–
–	[2H]c1nc(NC(=O)C2CCNCC2)cc2cc(-c3cnn(C)c3)ccc12 [Compound 1085, N-(6-(1-Methyl-1H-pyrazol-4-yl)isoquinolin-3-yl-1-d)piperidine-4-carboxamide]	2200	2.4	83	1240	453	–	–	–	–	–
422	[2H]c1nc(NC(=O)CN2CCCC2)cc2cc(-c3cnn(C)c3)ccc12 [Compound 1093, N-(6-(1-Methyl-1H-pyrazol-4-yl)isoquinolin-3-yl-1-d)-2-(pyrrolidin-1-yl) acetamide]	1780	11.7	47	–	–	–	–	–	–	–
398	Cc1nnc(-c2ccc3cnc(NC(=O)CN4CCOC[C@H]4C)cc3c2)s1 [Compound 953, (R)—N-(6-(5-Methyl-1,3,4-thiadiazol-2-yl)isoquinolin-3-yl)-2-(3-methylmorpholino)acetamide]	> 10000	16.8	23	> 10000	–	48.7	40.3	–	–	–
869	CN1CCN(C(=O)[C@H]2CC[C@H](C(=O)Nc3cc4cc(-c5cnn(C)c5)ccc4cn3)CC2)CC1 [Compound 1091, trans-N-(6-(1-Methyl-1H-pyrazol-4-yl)isoquinolin-3-yl)-4-(4-methylpiperazine-1-carbonyl)cyclohexane-1-carboxamide]	2950	1.4	69	1250	–	–	–	–	–	–
–	CCN1/C(=C/C(C)=O)Sc2ccc(O)cc21 [Indy, reference compound]	–	–	–	–	–	–	–	–	–	> 10000
–	Cn1cc(-c2ccc3cnc(NC(=O)N4CN5CCC[C@@H]5C4=O)cc3c2)cn1 [Compound 362, (R)—N-(6-(1-Methyl-1H-pyrazol-4-yl)isoquinolin-3-yl)-1-oxotetrahydro-1H-pyrrolo[1,2-c]imidazole-2(3H)-carboxamide]	951	132	1100	5480	9150	–	–	782	–	–
254	[2H]C1([2H])OC([2H])([2H])C([2H])([2H])N(CC(=O)Nc2cc3cc(-c4nnc(C)s4)ccc3cn2)C1([2H])[2H] [Compound 1052, N-(6-(5-Methyl-1,3,4-thiadiazol-2-yl)isoquinolin-3-yl)-2-(morpholino-d8) acetamide]	2280	18	11	> 10000	–	–	40.7	–	–	–

Structure (SMILES)	EC50 [3, 6] [nM]	EC50 [1] [nM]	EC50 [2] [nM]	EC50 (recombinant GSK3β kinase) [nM]	EC50 [4] [nM]	EC50 (IL-6) [nM]	inhibition at 10 µM [1] [%]	inhibition at 10 µM [4] [%]	EC50 [5] [nM]	inhibition at 10 µM (IL-6; read-out: percent value in parentheses beside EC50 >10 μM) [%]	EC50 ([3]; control DYRK1A inhibitors, read-out: EC50 in the Tau assay) [nM]
Cc1ncc(-c2ccc3cnc(NC(=O)CN4CCCCC4)cc3c2)o1 [Compound 1028, N-(6-(2-Methyloxazol-5-yl)isoquinolin-3-yl)-2-(piperidin-1-yl)acetamide]	536	3870	22.5	104	3520	1930	–	–	–	–	–
Cn1cc(-c2ccc3cnc(NC(=O)CCN4CCOCC4)cc3c2)cn1 [Compound 1034, N-(6-(1-Methyl-1H-pyrazol-4-yl)isoquinolin-3-yl)-3-morpholinopropanamide]	430	2040	1.9	27	3240	3320	–	–	–	–	–
CC(C)CN1CCC(C(=O)Nc2cc3cc(-c4nnnn4C)ccc3cn2)CC1 [Compound 1092, 1-Isobutyl-N-(6-(1-methyl-1H-tetrazol-5-yl)isoquinolin-3-yl)piperidine-4-carboxamide]	131	247	62.7	132	2980	–	–	–	–	–	–
Cn1cc(-c2ccc3cnc(NC(=O)C4CCN(S(C)(=O)=O)CC4)cc3c2)cn1 [Compound 330, N-(6-(1-Methyl-1H-pyrazol-4-yl)isoquinolin-3-yl)-1-(methylsulfonyl) piperidine-4-carboxamide]	246	449	–	–	6780	1160	–	–	20	–	–
